Results reported in patent publication US9821027B2, “Method for regenerating cartilage comprising applying a monovalent metal salt of alginic acid and SDF-1” (Mochida Pharmaceutical Co., Ltd., priority 2011, dated 2017).

Legend:
[1] = test system: bone marrow mesenchymal stromal cells (BMSC); experiment: BMSC differentiation into chondrocytes in alginic acid gel beads; assay type: cell-based, Japanese white rabbit; conditions: 10 μg/ml SDF-1 or 250 μg/ml AMD3100 in alginic acid gel beads vs alginic acid only, 28 days
Protocol: (§1) Bone marrows were collected from a tibia of a 15-week-old Japanese white rabbit to isolate and culture bone marrow mesenchymal stromal cells (BMSC). Isolation was carried out according to the method of Wakitani et al. (Wakitani S et al., J bone Joint Surg Am, Vol. 76, p 579, 1994). The isolated cells were incubated at 37° C. under humidified 5% CO2 and maintained in monolayer culture.
(§2) Proliferation and differentiation of BMSC were tested by embedding BMSC in alginic acid gel beads. The cells were suspended in a 2% sodium alginate solution. The suspension was dripped in a CaCl2 solution with a pipette for gelation. Ten minutes later, the resulting microcapsules were washed twice with Ca/Mg-free PBS and once with DMED-HG. The resulting beads contained 1×10^6 cells per 40 μl of beads.
Differentiation into chondrocytes in the alginic acid gel beads was tested by culturing BMSC-containing beads in a DMED-HG medium containing 100 μg/ml sodium pyruvate (ICN Biomedicals, Aurora, Ohio), 40 μg/ml proline (ICN Biomedicals), 50 μg/ml ascorbate-2-phosphate (Wako, Osaka, Japan), 1×10^−7M dexamethasone (ICN Biomedicals), 1% ITS plus mix (Sigma-Aldrich, St. Louis., Mo.), 1% antibiotics and 10 ng/ml recombinant human transforming growth factor […] (R&D Systems, Minneapolis, Minn.) (dissolved with 4 mM HCl containing 1 μg/ml bovine serum albumin) for 28 days. The medium was exchanged every three days. […]

[2] = test system: bone marrow mesenchymal stromal cells (BMSC); experiment: BMSC proliferation in alginic acid gel beads (Cell Counting Kit-8); assay type: cell-based, Japanese white rabbit; conditions: 10 μg/ml SDF-1 or 250 μg/ml AMD3100 in alginic acid gel beads vs alginic acid only, up to 7 days, n=5
Protocol: as §1, §2
The alginic acid gel beads containing 10 μg/ml of SDF-1 or 250 μg/ml of AMD3100 were cultured in DMED-HG containing 10% FBS and 1% antibiotics for 3 hours, 1 day, 2 days, 3 days and 7 days. The cells collected from the alginic acid gel beads were washed with PBS for three times, incubated in 50 mM EDTA (Gibco BRL laboratories) at 37° C. under 5% CO2. Ten minutes later, the cells were centrifuged at 1,500 g for 5 minutes for cell collection and the number of live cells was counted with Cell Counting Kit-8 (Dojindo Laboratories, Tokyo, Japan).

c1cc(CN2CCCNCCNCCCNCC2)ccc1CN1CCCNCCNCCCNCC1 [AMD3100]
differentiation of BMSC into chondrocytes [1]: no difference | BMSC proliferation (number of live cells) [2]: no significant difference
